Data: US20210260010A1, “COMPOSITIONS AND METHODS FOR THE REDUCTION OR TREATMENT OF INFLAMMATION” (AXCELLA HEALTH INC., priority 2018, published 2021)

What was measured:
[1] = test system: CCL18; experiment: IL-4 induced CCL18 secretion in primary human monocyte-derived macrophages (ELISA); assay type: cell-based; settings: for Donor 1 CCL18 Measurements Mean / Donor 2 CCL18 Measurements Mean: relative to vehicle control; for CCL18 Measurements: Mean (fold change relative to vehicle control): IL-4 induced; for IL-4 induced CCL18 secretion (fold change relative to vehicle control): macrophages
Method: Lymphocytes were purified from unpurified buffy coats (Research Blood Components) using Lymphocyte Separation Medium (Corning). After centrifugation, the PBMC layer was extracted and rinsed several times using Dulbecco's phosphate-buffered saline (DPBS; Gibco). After straining PBMCs through a 70 uM cell strainer, cells were resuspended and counted using a Cellometer K2 automated cell counter.
CD14+ cells were selected using EasySep™ Human CD14 Positive Selection Kit II ([…] Technologies) according to manufacturer-supplied protocols. Following isolation CD14+ cells were seeded into 10 cm tissue culture plates and differentiated into macrophages using M-CSF (Peprotech).
On day 0, primary human PBMC derived macrophages were seeded in Dulbecco's Modified Eagle Medium (DMEM) (Gibco) supplemented with penicillin-streptomycin (Hyclone) and 10% heat inactivated fetal bovine serum (HI-FBS) (Atlanta Bio) into 96-well microplates (ThermoFisher) and incubated overnight at 37° C., 5% CO2. On day 1, cells were washed once with DPBS and then treated with: • a. Amino acid free DMEM (US Biologicals) containing a defined custom amino acid concentration based on the mean physiological concentrations in blood based on values published in the Human Metabolome Database (HMDB), with 6 mM glucose, 1 mM sodium pyruvate, 10 mM HEPES, penicillin-streptomycin; or • b. The same medium described above with one amino acid or amino acid combination at various concentrations
On day 2, cells were treated with the same mediums described above supplemented with recombinant human interleukin-4 (IL-4; Peprotech). Control wells were treated with tofacitinib (Tocris) and IL-4, PBS with IL-4, or phosphate buffered saline (PBS) alone.
On day 3, the supernatant was collected and immediately frozen in −80° C. freezer. Cells were washed once with DPBS and viability was assessed using the WST-8 Cell Proliferation Cytotoxicity Assay (Dojindo) according to manufacturer-supplied protocol. Following the assay, cells were washed twice with PBS and fixed with 4% paraformaldehyde. Protein levels in supernatant samples were analyzed by ELISA for CCL18 using commercially available kits (R&D Systems) according to manufacturer-supplied protocols.

[2] = test system: MCP1/CCL2; experiment: MCP1/CCL2 secretion by primary human hepatocytes exposed to free fatty acids and TNF-α (ELISA); assay type: cell-based; settings: for MCP1 expression relative to Control- Donor 1, Mean: donor 1 hepatocytes; for MCP1 expression relative to Control- Donor 1, Mean / MCP1 expression relative to Control- Donor 2, Mean: FFA + TNF-α, baseline subtracted; for MCP1 expression relative to Control- Donor 2, Mean: donor 2 hepatocytes; for MCP1/CCL2 secretion (baseline subtracted): primary human hepatocytes from two healthy donors, FFA 250 uM + TNF-α 1 ng/ml
Method: Hepatocyte lipotoxicity appears to be a central driver of hepatic cellular injury via oxidative stress and endoplasmic reticulum (ER) stress. The ability of amino acids to influence steatosis (lipid accumulation) and inflammation in hepatocytes was assessed using human primary hepatocytes (Lonza, TRL).
Primary hepatocytes lot nos. from two healthy human donors were seeded on day 0 at density of 6e04 cells in 96 well optical microplates (Thermofisher) in hepatocyte plating media (William's E medium (Gibco) supplemented with 10% heat-inactivated FBS (Atlanta Bio), 2 mM Glutamax (Gibco) and 0.2% Primocin (InVivoGen) and incubated for 6 hours at 37° C., 5% CO2. After 6 hours, cells were washed twice and incubated overnight at 37° C., 5% CO2 with Hepatocytes defined medium (Corning) supplemented with 2 mM Glutamax (Gibco) and 1× Penicillin/Streptomycin. On day 1, cells were washed twice and incubated for 24 h in the hepatocyte culture media in the same conditions described above.
On day 2, cells were washed twice with DPBS 1× (Gibco) and maintained in amino acid-free WEM (US Biologicals) containing a defined custom amino acid concentration based on the mean physiological concentrations in blood. The values are published in the Human Metabolome Database (Wishart D S, Tzur D, Knox C, et al., HMDB: the Human Metabolome Database. Nucleic Acids Res. January 2007; 35(Database issue):D521-6. 17202168; which is hereby incorporated by reference in its entirety). This custom media is supplemented with 11 mM Glucose, 0.272 mM Sodium Pyruvate, and a dose curve of defined amino acid compositions (i.e., vehicle, LIVRQ+N-acetylcysteine, LIVRQ, RQ+N-acetylcysteine, N-acetylcysteine alone, LIV, or individually with L-Leucine, L-Isoleucine, L-Valine, L-Arginine, L-Glutamine, and L-Cysteine) at various ranges of concentrations. Cells were maintained in this defined media for 24 hours at 37° C., 5% CO2.
After pre-treatment, cells were exposed to free fatty acids (FFA) at 250 uM with a ratio of 2:1 (Oleate:Palmitate) supplemented with TNF-α (Thermofisher) at 1 ng/ml or vehicle. Cells were incubated with the FFAs mixture and the different amino acids combinations for 24 hours at 37° C., 5% CO2. After 24 hours incubation, media was removed for cytokine analysis and replaced by fresh media containing the same stimulus conditions and amino acid concentrations. Cells were incubated for an additional 48 hours for a total of 72 hours of FFA and TNFα stimulation.
Human CCL2 (MCP-1) was measured by ELISA (Human […] DuoSet ELISA, R&D Systems) at ⅕ or 1/10 dilution in 1× Reagent Diluent (Reagent Ancillary Kit 2, R&D Systems). Data were normalized to the specific per well cell density determined by nuclei count stained by Hoechst 3342 (Life technologies) in the fluorescence microscopy described below.

[3] = Conc. 153 μM (baseline comparator)

CC(C)C[C@H](N)C(=O)O [Leucine, L-Leucine]
Donor 1 CCL18 Measurements Mean ([1]; Donor 1, Conc. 153 μM): 1.124 fold change
Donor 1 CCL18 Measurements Mean ([1]; Donor 1, Conc. 3054 μM): 1.302 fold change
Donor 1 CCL18 Measurements Mean ([1]; Donor 1, Conc. 7635 μM): 1.247 fold change
Donor 1 CCL18 Measurements Mean ([1]; Donor 1, Conc. 15270 μM): 1.227 fold change
Donor 2 CCL18 Measurements Mean ([1]; Donor 2, Conc. 153 μM): 1.488 fold change
Donor 2 CCL18 Measurements Mean ([1]; Donor 2, Conc. 3054 μM): 1.646 fold change
Donor 2 CCL18 Measurements Mean ([1]; Donor 2, Conc. 7635 μM): 1.825 fold change
Donor 2 CCL18 Measurements Mean ([1]; Donor 2, Conc. 15270 μM): 1.712 fold change
CCL18 Measurements: Mean (fold change relative to vehicle control) ([1]; Donor 3, Conc. 153 μM): 1.242 fold change
CCL18 Measurements: Mean (fold change relative to vehicle control) ([1]; Donor 3, Conc. 3054 μM): 1.502 fold change
CCL18 Measurements: Mean (fold change relative to vehicle control) ([1]; Donor 3, Conc. 7635 μM): 1.558 fold change
CCL18 Measurements: Mean (fold change relative to vehicle control) ([1]; Donor 3, Conc. 15270 μM): 1.193 fold change
IL-4 induced CCL18 secretion (fold change relative to vehicle control) ([1]; Donor 2): significantly increased
IL-4 induced CCL18 secretion (fold change relative to vehicle control) ([1]; Donor 3): significantly increased
MCP1 expression relative to Control- Donor 1, Mean [2, 3]: 5.92E−16
MCP1 expression relative to Control- Donor 2, Mean [2, 3]: −4.7E−15
MCP1 expression relative to Control- Donor 1, Mean ([2]; Conc. 3054 μM): 3.34
MCP1 expression relative to Control- Donor 2, Mean ([2]; Conc. 3054 μM): 16.11
MCP1 expression relative to Control- Donor 1, Mean ([2]; Conc. 7635 μM): 1.896
MCP1 expression relative to Control- Donor 2, Mean ([2]; Conc. 7635 μM): −2.988
MCP1 expression relative to Control- Donor 1, Mean ([2]; Conc. 15270 μM): −1.368
MCP1 expression relative to Control- Donor 2, Mean ([2]; Conc. 15270 μM): −26.6436
MCP1/CCL2 secretion (baseline subtracted) [2]: did not have an effect

CC(=O)N[C@@H](CS)C(=O)O [NAC, N-acetylcysteine]
Donor 1 CCL18 Measurements Mean ([1]; Donor 1, Conc. 4 X): 1.831 fold change
Donor 1 CCL18 Measurements Mean ([1]; Donor 1, Conc. 10 X): 1.979 fold change
Donor 1 CCL18 Measurements Mean ([1]; Donor 1, Conc. 20 X): 2.206 fold change
Donor 1 CCL18 Measurements Mean ([1]; Donor 1, Conc. 40 X): 2.464 fold change
Donor 2 CCL18 Measurements Mean ([1]; Donor 2, Conc. 5 X): 1.326 fold change
Donor 2 CCL18 Measurements Mean ([1]; Donor 2, Conc. 10 X): 1.293 fold change
Donor 2 CCL18 Measurements Mean ([1]; Donor 2, Conc. 20 X): 1.169 fold change
Donor 2 CCL18 Measurements Mean ([1]; Donor 2, Conc. 40 X): 1.517 fold change
CCL18 Measurements: Mean (fold change relative to vehicle control) ([1]; Donor 3, Conc. 5 X): 1.324 fold change
CCL18 Measurements: Mean (fold change relative to vehicle control) ([1]; Donor 3, Conc. 10 X): 1.67 fold change
CCL18 Measurements: Mean (fold change relative to vehicle control) ([1]; Donor 3, Conc. 20 X): 1.812 fold change
CCL18 Measurements: Mean (fold change relative to vehicle control) ([1]; Donor 3, Conc. 40 X): 1.887 fold change
IL-4 induced CCL18 secretion (fold change relative to vehicle control) ([1]; Donor 1): significantly increased
IL-4 induced CCL18 secretion (fold change relative to vehicle control) ([1]; Donor 2): significantly increased
MCP1 expression relative to Control- Donor 1, Mean ([2]; Conc. 1000 μM): −0.7629
MCP1 expression relative to Control- Donor 2, Mean ([2]; Conc. 1000 μM): 1.602
MCP1 expression relative to Control- Donor 1, Mean ([2]; Conc. 2500 μM): −2.498
MCP1 expression relative to Control- Donor 2, Mean ([2]; Conc. 2500 μM): −4.0591
MCP1 expression relative to Control- Donor 1, Mean ([2]; Conc. 5000 μM): −10.8919
MCP1 expression relative to Control- Donor 2, Mean ([2]; Conc. 5000 μM): −10.5725
MCP1 expression relative to Control- Donor 1, Mean ([2]; Conc. 10000 μM): −17.6065
MCP1 expression relative to Control- Donor 2, Mean ([2]; Conc. 10000 μM): −28.4419
MCP1 expression relative to Control- Donor 1, Mean ([2]; Conc. 5 X): −0.7629
MCP1 expression relative to Control- Donor 1, Mean ([2]; Conc. 10 X): −2.498
MCP1 expression relative to Control- Donor 1, Mean ([2]; Conc. 20 X): −10.8919
MCP1 expression relative to Control- Donor 1, Mean ([2]; Conc. 40 X): −17.6065
MCP1 expression relative to Control- Donor 2, Mean ([2]; Conc. (X) 1000): 1.602
MCP1 expression relative to Control- Donor 2, Mean ([2]; Conc. (X) 2500): −4.0591
MCP1 expression relative to Control- Donor 2, Mean ([2]; Conc. (X) 5000): −10.5725
MCP1 expression relative to Control- Donor 2, Mean ([2]; Conc. (X) 10000): −28.4419
MCP1/CCL2 secretion (baseline subtracted) [2]: significantly decrease
